Laboratory results taken from the NIST ThermoML archive (doi:10.1016/j.tca.2015.06.017).

Assay: xn = mol fraction of the nth substance listed
Details: Liquid, Vibrating tube method

CC(C)CCl [1-chloro-2-methylpropane] + CCCCCCC
mass density [kg/m3]
Details | 313.15 K | 323.15 K
100 kPa, x2 = 0.0531 | – | 828.79
100 kPa, x2 = 0.1023 | – | 816.48
100 kPa, x2 = 0.2009 | – | 793.26
100 kPa, x2 = 0.3009 | – | 771.57
100 kPa, x2 = 0.3981 | – | 752.04
100 kPa, x2 = 0.4986 | – | 733.39
100 kPa, x2 = 0.5998 | – | 715.95
100 kPa, x2 = 0.7038 | – | 699.34
100 kPa, x2 = 0.7993 | – | 685.15
100 kPa, x2 = 0.8995 | – | 671.24
100 kPa, x2 = 0.9507 | – | 664.49
2000 kPa, x2 = 0.0531 | – | 831.42
2000 kPa, x2 = 0.1023 | – | 819.08
2000 kPa, x2 = 0.2009 | – | 795.85
2000 kPa, x2 = 0.3009 | – | 774.11
2000 kPa, x2 = 0.3981 | – | 754.54
2000 kPa, x2 = 0.4986 | – | 735.78
2000 kPa, x2 = 0.5998 | – | 718.28
2000 kPa, x2 = 0.7038 | – | 701.64
2000 kPa, x2 = 0.7993 | – | 687.35
2000 kPa, x2 = 0.8995 | – | 673.46
2000 kPa, x2 = 0.9507 | – | 666.75
5000 kPa, x2 = 0.0531 | – | 835.4
5000 kPa, x2 = 0.1023 | – | 823.02
5000 kPa, x2 = 0.2009 | – | 799.77
5000 kPa, x2 = 0.3009 | – | 777.97
5000 kPa, x2 = 0.3981 | – | 758.35
5000 kPa, x2 = 0.4986 | – | 739.53
5000 kPa, x2 = 0.5998 | – | 721.98
5000 kPa, x2 = 0.7038 | – | 705.28
5000 kPa, x2 = 0.7993 | – | 690.97
5000 kPa, x2 = 0.8995 | – | 677.02
5000 kPa, x2 = 0.9507 | – | 670.29
7000 kPa, x2 = 0.0531 | – | 838.13
7000 kPa, x2 = 0.1023 | – | 825.7
7000 kPa, x2 = 0.2009 | – | 802.4
7000 kPa, x2 = 0.3009 | – | 780.57
7000 kPa, x2 = 0.3981 | – | 760.9
7000 kPa, x2 = 0.4986 | – | 742.03
7000 kPa, x2 = 0.5998 | – | 724.42
7000 kPa, x2 = 0.7038 | – | 707.68
7000 kPa, x2 = 0.7993 | – | 693.36
7000 kPa, x2 = 0.8995 | – | 679.35
7000 kPa, x2 = 0.9507 | – | 672.58
10000 kPa, x2 = 0.0531 | – | 841.75
10000 kPa, x2 = 0.1023 | – | 829.31
10000 kPa, x2 = 0.2009 | – | 805.94
10000 kPa, x2 = 0.3009 | – | 784.05
10000 kPa, x2 = 0.3981 | – | 764.32
10000 kPa, x2 = 0.4986 | – | 745.38
10000 kPa, x2 = 0.5998 | – | 727.75
10000 kPa, x2 = 0.7038 | – | 710.93
10000 kPa, x2 = 0.7993 | – | 696.57
10000 kPa, x2 = 0.8995 | – | 682.48
10000 kPa, x2 = 0.9507 | – | 675.7
20000 kPa, x2 = 0.0531 | – | 853.08
20000 kPa, x2 = 0.1023 | – | 840.6
20000 kPa, x2 = 0.2009 | – | 817.1
20000 kPa, x2 = 0.3009 | – | 794.98
20000 kPa, x2 = 0.3981 | – | 775.23
20000 kPa, x2 = 0.4986 | 764.52 | 755.93
20000 kPa, x2 = 0.5998 | 746.45 | 738.09
20000 kPa, x2 = 0.7038 | 729.18 | 721.08
20000 kPa, x2 = 0.7993 | 714.39 | 706.61
20000 kPa, x2 = 0.8995 | 699.99 | 692.36
20000 kPa, x2 = 0.9507 | 692.96 | 685.54
30000 kPa, x2 = 0.0531 | 872.66 | 863.29
30000 kPa, x2 = 0.1023 | 859.97 | 850.64
30000 kPa, x2 = 0.2009 | 835.81 | 826.96
30000 kPa, x2 = 0.3009 | 813.29 | 804.68
30000 kPa, x2 = 0.3981 | 792.99 | 784.58
30000 kPa, x2 = 0.4986 | 773.45 | 765.27
30000 kPa, x2 = 0.5998 | 755.17 | 747.25
30000 kPa, x2 = 0.7038 | 737.72 | 730.1
30000 kPa, x2 = 0.7993 | 722.79 | 715.4
30000 kPa, x2 = 0.8995 | 708.23 | 700.96
30000 kPa, x2 = 0.9507 | 701.14 | 694.07
40000 kPa, x2 = 0.0531 | 881.46 | 872.52
40000 kPa, x2 = 0.1023 | 868.66 | 859.81
40000 kPa, x2 = 0.2009 | 844.37 | 835.84
40000 kPa, x2 = 0.3009 | 821.69 | 813.46
40000 kPa, x2 = 0.3981 | 801.27 | 793.25
40000 kPa, x2 = 0.4986 | 781.56 | 773.87
40000 kPa, x2 = 0.5998 | 763.14 | 755.68
40000 kPa, x2 = 0.7038 | 745.56 | 738.29
40000 kPa, x2 = 0.7993 | 730.5 | 723.4
40000 kPa, x2 = 0.8995 | 715.76 | 708.85
40000 kPa, x2 = 0.9507 | 708.64 | 701.87
50000 kPa, x2 = 0.0531 | 889.63 | 881.03
50000 kPa, x2 = 0.1023 | 876.7 | 868.25
50000 kPa, x2 = 0.2009 | 852.23 | 844.11
50000 kPa, x2 = 0.3009 | 829.5 | 821.56
50000 kPa, x2 = 0.3981 | 808.88 | 801.14
50000 kPa, x2 = 0.4986 | 789.11 | 781.63
50000 kPa, x2 = 0.5998 | 770.57 | 763.29
50000 kPa, x2 = 0.7038 | 752.8 | 745.73
50000 kPa, x2 = 0.7993 | 737.67 | 730.8
50000 kPa, x2 = 0.8995 | 722.82 | 716.06
50000 kPa, x2 = 0.9507 | 715.59 | 709.05
60000 kPa, x2 = 0.0531 | 897.18 | 888.87
60000 kPa, x2 = 0.1023 | 884.27 | 876.05
60000 kPa, x2 = 0.2009 | 859.72 | 851.78
60000 kPa, x2 = 0.3009 | 836.81 | 829.15
60000 kPa, x2 = 0.3981 | 815.99 | 808.64
60000 kPa, x2 = 0.4986 | 796.1 | 788.91
60000 kPa, x2 = 0.5998 | 777.45 | 770.47
60000 kPa, x2 = 0.7038 | 759.57 | 752.78
60000 kPa, x2 = 0.7993 | 744.29 | 737.68
60000 kPa, x2 = 0.8995 | 729.33 | 722.83
60000 kPa, x2 = 0.9507 | 722.04 | 715.76
65000 kPa, x2 = 0.0531 | 900.74 | 892.62
65000 kPa, x2 = 0.1023 | 887.8 | 879.77
65000 kPa, x2 = 0.2009 | 863.12 | 855.45
65000 kPa, x2 = 0.3009 | 840.18 | 832.75
65000 kPa, x2 = 0.3981 | 819.3 | 812.18
65000 kPa, x2 = 0.4986 | 799.37 | 792.37
65000 kPa, x2 = 0.5998 | 780.62 | 773.88
65000 kPa, x2 = 0.7038 | 762.72 | 756.14
65000 kPa, x2 = 0.7993 | 747.34 | 741.15
65000 kPa, x2 = 0.8995 | 732.38 | 726.04
65000 kPa, x2 = 0.9507 | 725.02 | 718.95
